Legend:
[1] = 5% mass reduction temperature (TG-DTA); type: physicochemical; conditions: nitrogen atmosphere, 50 to 400° C., heating rate 10° C./min
Experimental: (5% Mass Reduction Temperature)
The temperature, at which the mass of the sample is reduced by 5% by mass, was measured using a Thermogravimeter-Differential Thermal Analyzer (TG-DTA) (manufactured by PerkinElmer, Inc., “TGA-4000”) in a nitrogen atmosphere, under the condition of a measurement temperature range of 50 to 400° C. with a heating rate of 10° C./min.

[2] = Visual confirmation of extruded thread shaped sample (compatibility of resin and additive); type: physicochemical; conditions: thread shaped sample extruded from the resin composition, visually confirmed
Experimental: When a thread shaped sample obtained by extruding the resin composition was visually confirmed, the resin and the additive were compatible with each other without becoming cloudy in each of samples.
For each of Examples, the PA66 as a resin and AAD-FL as an additive were kneaded at a ratio shown in Table 3 to prepare a resin composition. Kneading was performed using a twin-screw extruder (manufactured by Parker Corporation, “HK25D”, L/D=41, screw diameter: 25 mm) under the conditions of a temperature of 270° C., a screw rotation speed of 150 rpm, and a discharge amount of 6 kg/hour. When a thread shaped sample obtained by extruding the resin composition was visually confirmed, the resin and the additive were compatible with each other without becoming cloudy in each of samples in Examples 4 to 6, as in Example 3.

Row | 5% mass reduction temperature [1] [°C] | compatibility of resin and additive [2] | SMILES
1 | 294 |  | CCN(CC)C(=O)CCC1(CCC(=O)N(CC)CC)c2ccccc2-c2ccccc21 [DEAA-FL, 9,9-bis[2-(N,N-diethylcarbamoyl)ethyl]fluorene]
2 | 318 |  | CN(C)C(=O)CCC1(CCC(=O)N(C)C)c2ccccc2-c2ccccc21 [DMAA-FL, 9,9-bis[2-(N,N-dimethylcarbamoyl)ethyl]fluorene]
3 | 320 | compatible with the resin | NC(=O)CCC1(CCC(N)=O)c2ccccc2-c2ccccc21 [AAD-FL, 9,9-bis(2-carbamoylethyl)fluorene]
4 | 257 |  | CC(C)NC(=O)CCC1(CCC(=O)NC(C)C)c2ccccc2-c2ccccc21 [NIPAM-FL, 9,9-bis[2-(N-isopropylcarbamoyl)ethyl]fluorene]
